Assay results reported in US20170051149A1, “AZOARYLS AS REVERSIBLY MODULATABLE TUBULIN INHIBITORS” (ECOLE NORMALE SUPERIEURE DE LYON, priority 2014, published 2017).

Assays:
Type in all cases: cell-based
HeLa cells [1] = assay: cytotoxicity by crystal violet staining; conditions: 40 h
Protocol: Seven of the compounds according to the invention were selected for biological tests. Their cytotoxicity was assessed using crystal violet staining as adapted from standard procedure^[31]. Briefly, HeLa cells were seeded on 96-well plates, treated with the given concentrations of the selected compound, and exposed or not to the pulse protocol of illumination with light at 390 nm (pulses of 75 ms every 15 s). After 40 h cells were stained with crystal violet solution (0.5% crystal violet in 20% methanol) for 10 min. Unbound crystal violet was removed by rinsing with distilled water and cells were air-dried. Crystal violet was subsequently eluted from cells with 0.1 M sodium citrate in 50% ethanol. The absorbance of crystal violet is proportional to the cell number and was determined at 590 nm with a FLUOstar Omega microplate reader (BMG Labtech).
Each compound was tested at 6 doses: 100 nM, 500 nM, 1 μM, 2 μM, 5 μM and 10 μM. In order to ensure their solubility in the cell culture media, DMSO was used as a co-solvent, and to provide comparability between all samples the volume of DMSO was adjusted to obtain its final concentration as 1% in the cell culture media for all the compounds at all concentrations tested.
Results presented in Table 4 below are expressed as a fold growth relative to the control growth of the cells treated only with a co-solvent (1% DMSO), and are represented as a mean value from triplicates coming from a representative experiment.

HeLa cells [2] = assay: nuclear fragmentation (subG1, Nicoletti), induction of apoptosis; conditions: 30 h
Protocol: Different cell types, including MDA-MB-231, Jurkat, HeLa and HepG2 cells, were treated with indicated concentrations of compound I.1 and exposed to a 390 nm toxic regime, a rescue regime with both 390 nm and 515 nm light, or kept in the dark. Following the treatment, cells were stained with PI and the percentage of cells containing a hypodiploid amount of DNA (subG1 phase of cell cycle), was determined. Briefly, prior to analysis, cells were harvested on ice and incubated in a hypotonic buffer [0.1% sodium citrate, 0.1% Triton X-100 and 50 μg/mL propidium iodide (PI)] for 30 min at 4° C. Following the PI staining cells were analysed by flow cytometry using FACSCalibur flow cytometer (Becton Dickinson, Heidelberg, Germany) and Cell Quest Pro Software (Becton Dickinson).

HeLa cells [3] = assay: MTT assay; conditions: 48 h
Description: The cytotoxic properties of I.1 were subsequently confirmed with another method, using the quantification of mitochondrial dehydrogenase activity of cells as determined by the level of 3-(4.5-dimethylthiazol-2-yl)-2.5-diphenyl tetrazolium bromide (MTT) reduction to its purple formazan, according to standard protocol^[30]. […] Cells were kept in the dark, or exposed to a pulsed toxic regime of 390 nm only, or exposed to a strong rescue protocol with pulses of 390 nm then 505 nm light. Pulses of light were applied every 30 s; 390 nm light pulses lasted 150 ms every 30 s, while the 505 nm light pulses were applied for 500 ms; in the strong rescue regime, the 505 nm pulse was synchronised so that it began immediately after the 390 nm pulse ended.
Cellular viability was measured 48 h later, namely, cells were incubated with MTT for three hours and after dissolution of the formazan crystals with DMSO, absorbance at 550 nm was measured using a FLUOstar Omega microplate reader. Results are shown in Table 5 below and are expressed as a fold growth relative to the control growth of the cells treated only with a co-solvent (0.5% MeCN) and represent mean and standard deviation of quadruplicates of the optical density values, which are proportional to the cell number.

Jurkat cells = assay: membrane permeability, PI uptake in nonpermeabilized cells; conditions: 48 h
Protocol: (§1) Membrane integrity was assessed as a marker of cellular viability, via examining the uptake of propidium iodide (PI) in nonpermeabilized cells according to a standard protocol. Namely, cells were harvested and incubated with 5 μg/mL PI in PBS containing 2% FCS (foetal calf serum), and immediately analysed by flow cytometry using a FACSCalibur flow cytometer.

HeLa = assay: as above; conditions: 70 h
Protocol: as §1

MDA-MB-231 = assay: as above; conditions: 70 h
Protocol: as §1

[4] = 200 nM, 390 nm (1 s every 15 min)
[5] = 600 nM, 390 nm (1 s every 15 min)
[6] = 1.5 μM, 390 nm (1 s every 15 min)
[7] = 5 μM, 390 nm (1 s every 15 min)

COc1ccc(N=Nc2cc(OC)c(OC)c(OC)c2)cc1O [I.1, 2-methoxy-5-((3,4,5-trimethoxyphenyl)diazenyl)phenol]
mean fold growth (HeLa cells [1]; 100 nM, 390 nm (75 ms every 15 s)): 0.95 fold | mean fold growth (HeLa cells [1]; 100 nM, Dark): 0.95 fold | mean fold growth (HeLa cells [1]; 500 nM, 390 nm (75 ms every 15 s)): 0.85 fold | mean fold growth (HeLa cells [1]; 500 nM, Dark): 0.89 fold | mean fold growth (HeLa cells [1]; 1 μM, 390 nm (75 ms every 15 s)): 0.43 fold | mean fold growth (HeLa cells [1]; 1 μM, Dark): 0.87 fold | mean fold growth (HeLa cells [1]; 2 μM, 390 nm (75 ms every 15 s)): 0.35 fold | mean fold growth (HeLa cells [1]; 2 μM, Dark): 0.89 fold | mean fold growth (HeLa cells [1]; 5 μM, 390 nm (75 ms every 15 s)): 0.27 fold | mean fold growth (HeLa cells [1]; 5 μM, Dark): 0.84 fold | mean fold growth (HeLa cells [1]; 10 μM, 390 nm (75 ms every 15 s)): 0.35 fold | mean fold growth (HeLa cells [1]; 10 μM, Dark): 0.75 fold | mean % subG1 phase (HeLa cells [2]; 200 nM, 390 nm light (1 s pulses every 15 min)): 2.4% | mean % subG1 phase (HeLa cells [2]; 200 nM, dark): 1.8% | mean % subG1 phase (HeLa cells [2]; 600 nM, 390 nm light (1 s pulses every 15 min)): 6.2% | mean % subG1 phase (HeLa cells [2]; 600 nM, dark): 2.3% | mean % subG1 phase (HeLa cells [2]; 1.5 μM, 390 nm light (1 s pulses every 15 min)): 16.1% | mean % subG1 phase (HeLa cells [2]; 1.5 μM, dark): 2.9% | mean % subG1 phase (HeLa cells [2]; 5 μM, 390 nm light (1 s pulses every 15 min)): 12.8% | mean % subG1 phase (HeLa cells [2]; 5 μM, dark): 3.2% | mean fold growth (HeLa cells [3]; 10 nM, 390 nm (150 ms every 30 s)): 0.95 fold | mean fold growth (HeLa cells [3]; 10 nM, Dark): 0.93 fold | mean fold growth (HeLa cells [3]; 20 nM, 390 nm (150 ms every 30 s)): 0.96 fold | mean fold growth (HeLa cells [3]; 20 nM, Dark): 1.02 fold | mean fold growth (HeLa cells [3]; 50 nM, 390 nm (150 ms every 30 s)): 0.96 fold | mean fold growth (HeLa cells [3]; 50 nM, Dark): 1.01 fold | mean fold growth (HeLa cells [3]; 100 nM, 390 nm (150 ms every 30 s)): 0.93 fold | mean fold growth (HeLa cells [3]; 100 nM, dark): 1.01 fold | mean fold growth (HeLa cells [3]; 400 nM, 390 nm (150 ms every 30 s)): 0.28 fold | mean fold growth (HeLa cells [3]; 400 nM, dark): 1.00 fold | mean fold growth (HeLa cells [3]; 400 nM, rescue: 390 nm (150 ms) then 505 nm (500 ms) every 30 s): 0.46 fold | mean fold growth (HeLa cells [3]; 600 nM, 390 nm (150 ms every 30 s)): 0.21 fold | mean fold growth (HeLa cells [3]; 600 nM, dark): 1.05 fold | mean fold growth (HeLa cells [3]; 800 nM, 390 nm (150 ms every 30 s)): 0.17 fold | mean fold growth (HeLa cells [3]; 800 nM, Dark): 0.98 fold | mean fold growth (HeLa cells [3]; 1 μM, 390 nm (150 ms every 30 s)): 0.18 fold | mean fold growth (HeLa cells [3]; 1 μM, dark): 0.93 fold | mean fold growth (HeLa cells [3]; 2 μM, 390 nm (150 ms every 30 s)): 0.21 fold | mean fold growth (HeLa cells [3]; 2 μM, Dark): 0.98 fold | toxicity (HeLa cells [3]; in the dark, 10 nM-2 μM): no toxicity | concentration inducing severe cytotoxicity (HeLa cells [3]; upon exposure to the light (390 nm)): ≥ 400 nM | mean % cells PI+ (Jurkat cells; 50 nM, 390 nm (350 ms every 5 min)): 1.3% | mean % cells PI+ (Jurkat cells; 50 nM, Dark): 1.6% | mean % cells PI+ (Jurkat cells; 100 nM, 390 nm (350 ms every 5 min)): 2.3% | mean % cells PI+ (Jurkat cells; 100 nM, dark): 2.2% | mean % cells PI+ (Jurkat cells; 200 nM, 390 nm (350 ms every 5 min)): 3.4% | mean % cells PI+ (Jurkat cells; 200 nM, dark): 2.3% | mean % cells PI+ (Jurkat cells; 400 nM, 390 nm (350 ms every 5 min)): 6.3% | mean % cells PI+ (Jurkat cells; 400 nM, dark): 2.3% | mean % cells PI+ (Jurkat cells; 600 nM, 390 nm (350 ms every 5 min)): 8.1% | mean % cells PI+ (Jurkat cells; 600 nM, dark): 2.8% | mean % cells PI+ (HeLa; [4]): 4.5% | mean % cells PI+ (HeLa; 200 nM, dark): 4.5% | mean % cells PI+ (HeLa; [5]): 8.2% | mean % cells PI+ (HeLa; 600 nM, dark): 4.3% | mean % cells PI+ (HeLa; [6]): 46.1% | mean % cells PI+ (HeLa; 1.5 μM, dark): 4.2% | mean % cells PI+ (HeLa; [7]): 73.0% | mean % cells PI+ (HeLa; 5 μM, dark): 5.1% | mean % cells PI+ (MDA-MB-231; [4]): 4.4% | mean % cells PI+ (MDA-MB-231; 200 nM, dark): 5.0% | mean % cells PI+ (MDA-MB-231; [5]): 8.2% | mean % cells PI+ (MDA-MB-231; 600 nM, dark): 4.6% | mean % cells PI+ (MDA-MB-231; [6]): 24.1% | mean % cells PI+ (MDA-MB-231; 1.5 μM, dark): 4.3% | mean % cells PI+ (MDA-MB-231; [7]): 47.2% | mean % cells PI+ (MDA-MB-231; 5 μM, dark): 5.0%
